Source: patent EP4803525A1 (Hefei Institute of Pharmaceutical Industry Co., Ltd., priority 2023, dated 2025)

Experiments:
hERG potassium channel = target: T1, hERG potassium channel (Homo sapiens, UniProt Q12809); assay: hERG whole-cell patch-clamp test in HEK-293 cells; assay type: cell-based; conditions: HEK-293 cells stably expressing hERG, whole-cell patch clamp, 0.03-30 µM, read-out: h ERG IC50
T1 construct: host or cells: HEK-293
Experimental: HEK-293 cell line stably expressing hERG potassium channels (purchased from Creacell, catalog number: A-0320) was used. HEK293 cell lines were cultured in DMEM medium containing 10% fetal bovine serum and 0.8 mg/mL G418 at a temperature of 37°C and a carbon dioxide concentration of 5%. For patch-clamp assays, cells were separated using TrypLE™ Express before the assay. 4 × 10^3 cells were seeded onto coverslips and cultured in 24-well plates (final volume: 500 µL). The assays were performed 18 hours later.
Whole-cell patch-clamp test: after whole-cell sealing is achieved, the cell membrane voltage is clamped to -80mV. […] Data was collected every 10 seconds to observe the effect of the drug on hERG tail current. A -50 mV stimulus of 0.5 s was used as the leakage current detection. Experimental data were collected by the EPC-10 amplifier and stored in the software. Once the hERG current recorded in whole cells stabilized, drug administration began. Each drug concentration was administered for 5 minutes (or the current stabilized) before the next concentration was measured.

[1] = tested on: bleomycin-induced pulmonary fibrosis in rats; assay: Bleomycin-induced pulmonary fibrosis in rats; conditions: mean ± SD, n=10; for Percentage of lung collagen fibers (%): Masson's staining; for IL-6 / TGF-β: bronchoalveolar lavage fluid, ELISA
Experimental: 50 SD rats were randomly divided into 5 groups according to their body weight, with 10 rats in each group and half male and half female.
After anesthetizing rats with chloral hydrate, bleomycin solution was injected into the trachea through the vocal cords at a dose of 5 mg/kg and a volume of 1 ml/kg; rats in the blank control group were injected with an equal volume of physiological saline into the trachea. […] Blood and lungs were collected from each group of animals on day 22. After euthanizing the rats, the trachea was exposed, and an intravenous cannula was inserted into the rat's bronchus. The trachea was lavaged twice with PBS (5 ml), and the lavage fluid was collected. Then, centrifugation was performed at 1500 r/min for 10 min. The supernatant was collected.

[2] = tested on: mouse eosinophilic asthma model; assay: Eosinophilic asthma induced by house dust mite extract in mice; conditions: eosinophilic asthmatic mice, n=10; for IL-4 / IgE: bronchoalveolar lavage fluid, Mean ± SD; for Eosinophils (%): lung lavage fluid; for Eosinophils (%) / Number of sneezes (20 minutes): mean ± SD; for Number of sneezes (20 minutes): within 20 minutes after the last administration
Experimental: The number of eosinophils in the lung lavage fluid of mice and the number of sneezes in mice within 20 minutes after the last administration were counted.

[3] = tested on: rat model of chronic obstructive pulmonary disease (COPD); assay: Chronic obstructive pulmonary disease in rats (fumigation and intratracheal LPS); conditions: n=8; for 14-day FEV 1/FVC (%): day 14 of treatment; for 14-day FEV 1/FVC (%) / 28-day FEV 1/FVC (%): Mean ± SD; for 28-day FEV 1/FVC (%): last administration (28 days); for Pathological score: lung tissue, HE staining; for Pathological score / IL-1β / TNF-α: mean ± SD; for IL-1β / TNF-α: serum, ELISA
Experimental: Subsequently, the SD rats were randomly divided into 5 groups according to their body weight, with 8 rats in each group and half male and half female.
Except for the blank control group, SD rats were used to establish a rat model of chronic obstructive pulmonary disease (COPD) by fumigation and intratracheal instillation of LPS. On days 1, 14, 28 and 42 of modeling, the rats were anesthetized with chloral hydrate and then 125 µL of LPS (2 mg/mL) solution was instilled into the trachea. For the rest of the time, the animals were placed in a self-made fumigation box and each group of rats was continuously fumigated with 10 lit cigarettes for 1.5 hours (once in the morning and once in the afternoon) for 50 consecutive days. After the model was established, the rats in each group were given the drug twice a day for 28 consecutive days.
The rat lung function test instrument was used to measure FVC and FEV1 on day 14 of treatment and at the last administration, and the FEV1/FVC ratio was calculated.
Blood samples were collected after the last administration of the drug to measure inflammatory markers. Levels of IL-1β and TNF-α in serum were measured according to the ELISA instructions.
After the last treatment, all three lobes of the right lung of the rats were removed, fixed and dehydrated in 10% formaldehyde, embedded in paraffin, sectioned, and stained with hematoxylin and eosin (HE). The morphological changes of the lung tissue of the rats in each group were observed.

PDE4A1A = target: T2, PDE4A1A (Homo sapiens, UniProt P27815); assay: Selectivity for PDE4 enzyme isotypes, same detection method as PDE4B; assay type: biochemical
T2 construct: purchased BPS bioscience
Experimental: (§1) 2.1 Compound preparation and treatment: all compounds were prepared into 50 mM stock solutions using dimethyl sulfoxide.
(§2) 2.2 Preparation of working stock solution: a) the reference rolipram was serially diluted 3 times with dimethyl sulfoxide starting from 2 mmol, to a total of 10 concentrations. b) 2 mmol of the compound of the present invention was serially diluted three times with dimethyl sulfoxide (DMSO) to a total of 10 concentrations. c) A 200X positive control (2 mM rolipram) and a 200X vector control (100% dimethyl sulfoxide) were prepared. d) The compound plate was centrifuged at 1000 rpm for 1 minute.
(§3) • a) An Echo 550 was used to transfer 20 nL of compound dilution to each well of the detection plate. • b) The test plate was sealed and centrifuged at 1000 rpm for 1 minute. • c) 2X PDE4B2 was prepared in frozen PDE detection buffer. • d) 2 µL of 2X PDE4B2 was added to each well of the detection plate (prepared in step b). • e) The test plate was sealed and incubated for 10 minutes under RT conditions. • f) 2X Cyclic-3',5'-AMP was prepared in PDE detection buffer. • g) 2 µl of 2X Cyclic-3',5'-AMP (prepared in step f) was added to each well of the detection plate (prepared in step e) to initiate the reaction. Incubation was performed at room temperature for 60 minutes. • h) 4 µL of AMP-Glo reagent I was added. • i) 8 µL of AMP detection solution was added. Incubation was performed at room temperature for 60 minutes. • k) The RLU signal was read on the Envision 2105 reader.
(§4) Same detection method as PDE4B

PDE4B2A = target: T3, PDE4B2A (Homo sapiens, UniProt Q07343); assay: as above; assay type: biochemical
T3 construct: purchased BPS bioscience
Experimental: as §1, §2, §3, §4

PDE4C1 = target: T4, PDE4C1 (Homo sapiens, UniProt Q08493); assay: as above; assay type: biochemical
T4 construct: purchased BPS bioscience
Experimental: as §1, §2, §3, §4

PDE4D2 = target: T5, PDE4D2 (Homo sapiens, UniProt Q08499); assay: as above; assay type: biochemical
T5 construct: purchased BPS bioscience
Experimental: as §1, §2, §3, §4

PDE4D3 = target: T6, PDE4D3 (Homo sapiens, UniProt Q08499); assay: as above; assay type: biochemical
T6 construct: purchased BPS bioscience
Experimental: as §1, §2, §3, §4

[4] = 5 mg/kg intragastric twice daily for 14 days
[5] = 10 mg/kg intragastric twice daily for 14 days
[6] = 20 mg/kg intragastric twice daily for 14 days
[7] = 5 mg/kg twice daily for 14 days
[8] = 10 mg/kg twice daily for 14 days
[9] = 20 mg/kg twice daily for 14 days
[10] = 5 mg/kg twice a day for 28 days
[11] = 10 mg/kg twice a day for 28 days
[12] = 20 mg/kg twice a day for 28 days

T5 sequence (Q08499 303-809): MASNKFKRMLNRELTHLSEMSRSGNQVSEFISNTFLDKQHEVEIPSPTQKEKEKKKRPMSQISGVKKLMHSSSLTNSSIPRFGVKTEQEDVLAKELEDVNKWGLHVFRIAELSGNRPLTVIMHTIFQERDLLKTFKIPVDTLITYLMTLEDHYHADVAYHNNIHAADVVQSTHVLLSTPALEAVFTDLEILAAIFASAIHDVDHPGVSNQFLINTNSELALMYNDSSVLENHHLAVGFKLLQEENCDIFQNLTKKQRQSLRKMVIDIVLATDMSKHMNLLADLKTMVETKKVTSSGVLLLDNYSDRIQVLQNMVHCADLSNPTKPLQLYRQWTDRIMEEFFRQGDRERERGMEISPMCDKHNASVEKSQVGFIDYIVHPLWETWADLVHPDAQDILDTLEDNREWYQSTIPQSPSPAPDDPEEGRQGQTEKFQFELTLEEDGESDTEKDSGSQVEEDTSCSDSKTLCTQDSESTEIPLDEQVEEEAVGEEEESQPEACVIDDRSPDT
T3 sequence (Q07343 1-564 isoform Q07343-2): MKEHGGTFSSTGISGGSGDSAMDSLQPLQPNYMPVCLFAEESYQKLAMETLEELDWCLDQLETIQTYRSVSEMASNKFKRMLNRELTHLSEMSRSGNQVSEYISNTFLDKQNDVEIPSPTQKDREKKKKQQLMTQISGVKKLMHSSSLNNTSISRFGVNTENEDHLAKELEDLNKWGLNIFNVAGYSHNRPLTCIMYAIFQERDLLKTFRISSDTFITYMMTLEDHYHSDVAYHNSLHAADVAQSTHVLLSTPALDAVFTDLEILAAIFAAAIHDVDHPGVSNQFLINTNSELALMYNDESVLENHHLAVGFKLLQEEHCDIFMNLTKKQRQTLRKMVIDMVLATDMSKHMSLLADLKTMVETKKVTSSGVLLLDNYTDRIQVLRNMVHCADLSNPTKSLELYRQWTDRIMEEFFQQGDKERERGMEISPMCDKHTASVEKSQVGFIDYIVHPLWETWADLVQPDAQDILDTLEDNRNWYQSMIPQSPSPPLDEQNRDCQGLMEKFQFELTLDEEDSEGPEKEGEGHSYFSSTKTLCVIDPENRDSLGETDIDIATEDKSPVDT
T4 sequence (Q08493 whole entry): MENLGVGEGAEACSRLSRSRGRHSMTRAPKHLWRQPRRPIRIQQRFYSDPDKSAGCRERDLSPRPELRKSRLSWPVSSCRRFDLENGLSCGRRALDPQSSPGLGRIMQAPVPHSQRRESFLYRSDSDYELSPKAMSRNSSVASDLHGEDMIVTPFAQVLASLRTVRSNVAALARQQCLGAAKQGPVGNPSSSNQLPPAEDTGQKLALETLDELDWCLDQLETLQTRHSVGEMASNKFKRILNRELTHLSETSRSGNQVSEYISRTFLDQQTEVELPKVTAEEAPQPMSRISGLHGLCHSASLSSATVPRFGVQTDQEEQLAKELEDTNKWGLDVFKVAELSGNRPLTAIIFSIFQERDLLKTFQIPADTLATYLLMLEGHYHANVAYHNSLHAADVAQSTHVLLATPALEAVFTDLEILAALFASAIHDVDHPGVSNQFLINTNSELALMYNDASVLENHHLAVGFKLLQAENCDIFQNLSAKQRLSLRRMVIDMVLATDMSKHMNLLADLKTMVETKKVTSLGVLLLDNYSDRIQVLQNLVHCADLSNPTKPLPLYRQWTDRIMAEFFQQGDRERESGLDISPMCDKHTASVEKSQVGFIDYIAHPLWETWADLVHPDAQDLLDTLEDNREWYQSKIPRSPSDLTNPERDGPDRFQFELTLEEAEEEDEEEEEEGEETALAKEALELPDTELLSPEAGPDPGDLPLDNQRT
T2 sequence (P27815 1-647 isoform P27815-4): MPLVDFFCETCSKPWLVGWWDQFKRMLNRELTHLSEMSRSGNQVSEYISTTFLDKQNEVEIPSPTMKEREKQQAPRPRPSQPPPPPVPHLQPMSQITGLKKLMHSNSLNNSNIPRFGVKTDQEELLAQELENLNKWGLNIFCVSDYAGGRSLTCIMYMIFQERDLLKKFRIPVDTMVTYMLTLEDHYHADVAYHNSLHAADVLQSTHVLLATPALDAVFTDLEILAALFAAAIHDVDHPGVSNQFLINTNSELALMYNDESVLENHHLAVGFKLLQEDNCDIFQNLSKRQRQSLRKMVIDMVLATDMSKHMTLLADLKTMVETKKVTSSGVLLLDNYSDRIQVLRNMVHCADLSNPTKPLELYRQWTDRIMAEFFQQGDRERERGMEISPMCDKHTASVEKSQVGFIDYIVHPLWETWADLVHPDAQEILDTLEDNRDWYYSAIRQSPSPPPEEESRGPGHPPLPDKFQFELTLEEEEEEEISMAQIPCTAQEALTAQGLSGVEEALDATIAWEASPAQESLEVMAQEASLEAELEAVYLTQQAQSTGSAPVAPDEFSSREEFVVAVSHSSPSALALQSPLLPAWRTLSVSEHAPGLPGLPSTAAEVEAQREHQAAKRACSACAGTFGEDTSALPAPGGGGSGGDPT
T6 sequence (Q08499 1-673 isoform Q08499-2): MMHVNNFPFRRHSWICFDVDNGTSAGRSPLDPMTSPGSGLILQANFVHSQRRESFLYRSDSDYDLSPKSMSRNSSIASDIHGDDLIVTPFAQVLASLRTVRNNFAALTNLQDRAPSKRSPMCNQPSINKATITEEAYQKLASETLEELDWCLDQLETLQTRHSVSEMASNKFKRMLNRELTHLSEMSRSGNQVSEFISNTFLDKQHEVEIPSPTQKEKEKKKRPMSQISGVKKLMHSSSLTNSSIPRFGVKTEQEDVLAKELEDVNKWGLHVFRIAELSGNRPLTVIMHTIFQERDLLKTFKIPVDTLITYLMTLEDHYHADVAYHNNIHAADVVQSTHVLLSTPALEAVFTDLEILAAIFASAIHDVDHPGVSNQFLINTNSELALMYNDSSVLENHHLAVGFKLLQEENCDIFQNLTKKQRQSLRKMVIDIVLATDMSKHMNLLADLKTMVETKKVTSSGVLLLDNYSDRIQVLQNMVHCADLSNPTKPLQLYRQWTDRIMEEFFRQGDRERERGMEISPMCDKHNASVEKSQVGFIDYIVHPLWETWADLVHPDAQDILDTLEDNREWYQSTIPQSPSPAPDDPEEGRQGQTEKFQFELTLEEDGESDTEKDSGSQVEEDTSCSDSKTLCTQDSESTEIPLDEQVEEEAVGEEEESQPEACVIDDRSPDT
T1 sequence (Q12809 whole entry): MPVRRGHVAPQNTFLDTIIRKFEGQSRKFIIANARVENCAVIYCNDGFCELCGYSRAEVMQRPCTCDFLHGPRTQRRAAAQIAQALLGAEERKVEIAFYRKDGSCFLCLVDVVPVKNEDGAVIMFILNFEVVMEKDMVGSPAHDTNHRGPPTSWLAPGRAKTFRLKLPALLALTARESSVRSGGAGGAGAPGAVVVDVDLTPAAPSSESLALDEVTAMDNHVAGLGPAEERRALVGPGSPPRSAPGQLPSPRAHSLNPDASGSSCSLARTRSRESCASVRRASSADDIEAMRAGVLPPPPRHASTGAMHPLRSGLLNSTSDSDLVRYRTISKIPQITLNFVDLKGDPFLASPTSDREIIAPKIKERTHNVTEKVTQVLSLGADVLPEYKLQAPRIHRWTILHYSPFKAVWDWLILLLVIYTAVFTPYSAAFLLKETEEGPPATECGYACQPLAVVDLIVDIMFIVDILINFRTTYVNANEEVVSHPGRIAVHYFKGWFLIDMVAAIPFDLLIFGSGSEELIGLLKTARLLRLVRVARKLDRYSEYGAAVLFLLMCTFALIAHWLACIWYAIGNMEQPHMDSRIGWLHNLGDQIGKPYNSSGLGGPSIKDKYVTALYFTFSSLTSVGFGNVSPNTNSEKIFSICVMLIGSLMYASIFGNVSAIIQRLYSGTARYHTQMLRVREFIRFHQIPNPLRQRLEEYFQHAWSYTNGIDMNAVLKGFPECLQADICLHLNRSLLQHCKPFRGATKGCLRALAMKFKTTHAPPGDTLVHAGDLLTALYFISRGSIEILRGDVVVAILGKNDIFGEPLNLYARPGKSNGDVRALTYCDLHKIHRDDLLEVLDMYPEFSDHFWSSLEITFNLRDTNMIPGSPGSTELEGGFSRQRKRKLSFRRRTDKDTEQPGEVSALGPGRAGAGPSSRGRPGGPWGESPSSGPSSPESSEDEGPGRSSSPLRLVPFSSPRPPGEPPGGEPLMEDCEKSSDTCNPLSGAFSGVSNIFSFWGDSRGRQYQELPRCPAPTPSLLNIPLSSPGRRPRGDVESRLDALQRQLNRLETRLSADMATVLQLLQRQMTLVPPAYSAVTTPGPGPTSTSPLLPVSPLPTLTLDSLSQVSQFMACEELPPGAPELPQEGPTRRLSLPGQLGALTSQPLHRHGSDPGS

O=C(O)Cc1ccc(Nc2nc(N3CCC(c4ncc(Cl)cn4)CC3)nc3c2S(=O)(=O)CCC3)cc1F [Example 11, 2-(4-((2-(4-(5-chloropyrimidin-2-yl)piperidin-1-yl)-5,5-dioxo-7,8-dihydro-6H -thiapyrano[3,2-d]pyrimidin-4-yl)amino)-2-fluorophenyl)acetic acid]
IC50 (hERG potassium channel): > 30 µM
Percentage of lung collagen fibers (%) [1, 4]: 16.1±4.6 %
Percentage of lung collagen fibers (%) [1, 5]: 9.7±2.2 %
Percentage of lung collagen fibers (%) [1, 6]: 8.5±2.5 %
IL-6 [1, 4]: 34.8 ± 3.7 pg/mL
TGF-β [1, 4]: 79.0 ± 6.4 pg/mL
IL-6 [1, 5]: 32.5 ± 6.1 pg/mL
TGF-β [1, 5]: 69.1 ± 6.3 pg/mL
IL-6 [1, 6]: 28.3 ± 3.9 pg/mL
TGF-β [1, 6]: 56.3 ± 5.2 pg/mL
IL-4 [2, 7]: 70.92 ± 10.87 pg/mL
IgE [2, 7]: 266.55 ± 52.03 pg/mL
IL-4 [2, 8]: 59.38 ± 9.90 pg/mL
IgE [2, 8]: 219.05 ± 38.74 pg/mL
IL-4 [2, 9]: 51.13 ± 16.07 pg/mL
IgE [2, 9]: 189.36 ± 56.69 pg/mL
Eosinophils (%) [2, 7]: 21.97±2.58 %
Eosinophils (%) [2, 8]: 17.93±3.30 %
Eosinophils (%) [2, 9]: 16.04±2.97 %
Number of sneezes (20 minutes) [2, 7]: 17.9±3.4
Number of sneezes (20 minutes) [2, 8]: 16.3±3.7
Number of sneezes (20 minutes) [2, 9]: 13.8±1.9
14-day FEV 1/FVC (%) ([3]; 5 mg/kg twice a day): 66.65±5.48 %
28-day FEV 1/FVC (%) ([3]; 5 mg/kg twice a day): 69.99±2.65 %
14-day FEV 1/FVC (%) ([3]; 10 mg/kg twice a day): 72.14±6.56 %
28-day FEV 1/FVC (%) ([3]; 10 mg/kg twice a day): 75.30±1.84 %
14-day FEV 1/FVC (%) ([3]; 20 mg/kg twice a day): 76.78±5.41 %
28-day FEV 1/FVC (%) ([3]; 20 mg/kg twice a day): 77.10±1.81 %
Pathological score [3, 10]: 3.83 ± 0.75
Pathological score [3, 11]: 2.00±0.63
Pathological score [3, 12]: 1.83±0.41
IL-1β [3, 10]: 71.13 ± 16.14 pg/mL
TNF-α [3, 10]: 118.36 ± 27.30 pg/mL
IL-1β [3, 11]: 51.92 ± 16.06 pg/mL
TNF-α [3, 11]: 90.15 ± 15.79 pg/mL
IL-1β [3, 12]: 50.75 ± 15.07 pg/mL
TNF-α [3, 12]: 73.23 ± 11.78 pg/mL

[O-][S+]1CCc2nc(N3CCC(c4ncc(Cl)cn4)CC3)nc(NC3(CO)CCC3)c21 (stereo not drawn) [WO2013026797 (Compound II)]
IC50 (PDE4A1A): 112 nM
Selectivity over PDE4B (PDE4A1A; PDE4A1A vs PDE4B2A): 4.5
IC50 (PDE4B2A): 24.5 nM
Selectivity over PDE4B (PDE4B2A; PDE4B2A vs PDE4B2A): 1
IC50 (PDE4C1): 2190 nM
Selectivity over PDE4B (PDE4C1; PDE4C1 vs PDE4B2A): 89
IC50 (PDE4D2): 37.1 nM
Selectivity over PDE4B (PDE4D2; PDE4D2 vs PDE4B2A): 1.5
IC50 (PDE4D3): 65.8 nM
Selectivity over PDE4B (PDE4D3; PDE4D3 vs PDE4B2A): 2.7
IC50 at 5 min (hERG potassium channel; human, HEK-293 cells stably expressing hERG potassium channels): > 3.28 µM
